# Measurements from PubChem BioAssay (NCI).
#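 Results reflect a 48-hour exposure of cells in 96-well plates to compound at five concentrations. Abbreviation: GI50, concentration required for 50% inhibition of growth. Definition used: TGI = concentration required for complete inhibition of growth.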
# Experiments:
# Assay in all cases: growth of human tumour cells (NCI), 48 h
# [1] = test system: MDA-MB-468 breast
# [2] = test system: MCF7 breast
# [3] = test system: SN12C renal
# [4] = test system: OVCAR-4 ovarian
# [5] = test system: UACC-257 melanoma
# [6] = test system: RXF 393 renal
# [7] = test system: SF-295 CNS
# [8] = test system: T-47D breast
# [9] = test system: M14 melanoma
# [10] = test system: NCI-H23 lung
# [11] = test system: HCT-15 colon
# [12] = test system: SK-MEL-2 melanoma
# [13] = test system: A498 renal
# [14] = test system: CCRF-CEM leukemia
# [15] = test system: SNB-19 CNS
# [16] = test system: COLO 205 colon
# [17] = test system: ACHN renal
# [18] = test system: EKVX NSCLC
# [19] = test system: SK-OV-3 ovarian
# [20] = test system: HT29 colon
# [21] = test system: SK-MEL-28 melanoma
# [22] = test system: U251 CNS
# [23] = test system: SF-539 CNS
# [24] = test system: MALME-3M melanoma
# [25] = test system: NCI-H226 lung
# [26] = test system: OVCAR-5 ovarian
# [27] = test system: HOP-92 NSCLC
# [28] = test system: NCI-H460 lung
# [29] = test system: A549 NSCLC
# [30] = test system: MDA-MB-435
# [31] = test system: TK-10 renal
# [32] = test system: DU-145 prostate
# [33] = test system: UO-31 renal
# [34] = test system: PC-3 prostate
# [35] = test system: HCT-116 colon
# [36] = test system: OVCAR-8 ovarian
# [37] = test system: UACC-62 melanoma
# [38] = test system: KM12 colon
# [39] = test system: OVCAR-3 ovarian
# [40] = test system: BT-549 breast
# [41] = test system: 786-0 renal
# [42] = test system: MOLT-4 leukemia
# [43] = test system: SK-MEL-5 melanoma
# [44] = test system: NCI-H522 lung
# [45] = test system: SNB-75 CNS
# [46] = test system: RPMI-8226 leukemia
# [47] = test system: IGROV1 ovarian
# [48] = test system: SR leukemia
# [49] = test system: HL-60(TB) leukemia
# [50] = test system: HOP-62 NSCLC
# [51] = test system: HCC-2998 colon
# [52] = test system: NCI/ADR-RES ovarian
# [53] = test system: SF-268 CNS
# [54] = test system: K-562 leukemia
# [55] = test system: CAKI-1 renal
compound,measurement,setting,value
O=C(N/N=C/c1ccccc1O)c1ccccc1,GI50,[1],0.292 µM
same,TGI,[1],> 100 µM
O=S(=O)(NCCCNc1nccc(-c2c(-c3ccc(F)cc3)nc3sccn23)n1)c1ccc2ccccc2c1,GI50,[1],3.87 µM
same,TGI,[1],> 100 µM
COc1ccc(CN2C3CC2CN(c2ccc(-c4cc(OCC(C)(C)O)cn5ncc(C#N)c45)cn2)C3)cn1,GI50,[1],8.09 µM
same,TGI,[1],> 100 µM
O=c1oc2ccc(I)cc2c(=O)n1-c1ccc(Cl)cc1F,GI50,[1],2.11 µM
same,TGI,[1],5.81 µM
Cc1ccc(-c2nc3nc(-c4ccc(F)cc4)nc(N4CCCNCC4)c3o2)cc1,GI50,[1],1.58 µM
same,TGI,[1],3.18 µM
CN(C)c1ccc(-c2ccc(-c3ccc(C(=N)N)cc3)s2)cc1,GI50,[1],1.94 µM
same,TGI,[1],3.76 µM
O=c1c(F)cn(Cc2ccccc2CCl)c(=O)n1Cc1ccccc1CCl,GI50,[1],0.684 µM
same,TGI,[1],2.27 µM
CCOc1ccc(-c2nnc(C3CC(NC(=O)c4cccc5nccnc45)C3)n2-c2ccccc2F)nc1 (stereo not given),GI50,[1],10 µM
same,TGI,[1],71.5 µM
CCCCCCCCCCCCCCCC[N+]1(C)CCOCC1,GI50,[1],0.374 µM
same,TGI,[1],2.16 µM
C(=N\Nc1nnn(Cc2ccccc2)n1)/c1ccccc1,GI50,[1],1.48 µM
same,TGI,[1],11.9 µM
O=C1NC(=O)c2c1c1c3ccccc3ccc1c1[nH]c3ccccc3c21,GI50,[1],0.953 µM
same,TGI,[1],8.87 µM
CN(C)C(=O)O[C@H]1CN[C@H](C#Cc2cc3ncnc(Nc4ccc(OCc5cccc(F)c5)c(Cl)c4)c3s2)C1,GI50,[1],0.595 µM
same,TGI,[1],5.11 µM
CCNC(=O)c1noc(-c2cc(C(C)C)c(O)cc2O)c1-c1ccc(CN2CCOCC2)cc1,GI50,[1],< 0.01 µM
same,TGI,[1],0.055 µM
O=C1OCC2=C1C(c1ccccc1)c1cc3c(cc1N2CCO)OCO3 (stereo not given),GI50,[1],1.22 µM
same,TGI,[1],4.61 µM
O=C(O)[C@@H](Cc1ccc2ccccc2c1)NC(=O)n1c2ccccc2c2ccccc21,GI50,[1],1.9 µM
same,TGI,[1],7.17 µM
C=C1CC[C@@H]2[C@]3(C)COC(c4cn[nH]c4-c4ccc(F)cc4)O[C@@H]3CC[C@@]2(C)[C@@H]1C/C=C1/C(=O)OCC1O (stereo not given in full),GI50,[2],7.52 µM
same,TGI,[2],22 µM
same,GI50,[3],15.4 µM
same,TGI,[3],29.6 µM
same,GI50,[4],27.5 µM
same,TGI,[4],> 100 µM
same,GI50,[5],22.3 µM
same,TGI,[5],69.2 µM
same,GI50,[6],13.7 µM
same,TGI,[6],27 µM
same,GI50,[7],16.6 µM
same,TGI,[7],30.7 µM
same,GI50,[8],15.7 µM
same,TGI,[8],47.7 µM
same,GI50,[9],16.5 µM
same,TGI,[9],34.1 µM
same,GI50,[10],15.6 µM
same,TGI,[10],29.9 µM
same,GI50,[11],14.9 µM
same,TGI,[11],30.5 µM
same,GI50,[12],16.5 µM
same,TGI,[12],31.6 µM
same,GI50,[13],17 µM
same,TGI,[13],30.7 µM
same,GI50,[14],4.6 µM
same,TGI,[14],38.5 µM
same,GI50,[15],16 µM
same,TGI,[15],29.5 µM
same,GI50,[16],18.2 µM
same,TGI,[16],35 µM
same,GI50,[17],15.1 µM
same,TGI,[17],28.4 µM
same,GI50,[18],13.5 µM
same,TGI,[18],26.3 µM
same,GI50,[19],21.8 µM
same,TGI,[19],43.5 µM
same,GI50,[20],16.4 µM
same,TGI,[20],30.2 µM
same,GI50,[21],16.8 µM
same,TGI,[21],30.4 µM
same,GI50,[22],12.9 µM
same,TGI,[22],30.5 µM
same,GI50,[23],14.5 µM
same,TGI,[23],27.6 µM
same,GI50,[24],16 µM
same,TGI,[24],30 µM
same,GI50,[25],13.1 µM
same,TGI,[25],27.6 µM
same,GI50,[26],18.2 µM
same,TGI,[26],32.2 µM
same,GI50,[27],14.7 µM
same,TGI,[27],34.9 µM
same,GI50,[28],19.7 µM
same,TGI,[28],42.7 µM
same,GI50,[29],21.4 µM
same,TGI,[29],62.2 µM
same,GI50,[30],20.8 µM
same,TGI,[30],52.9 µM
same,GI50,[31],19 µM
same,TGI,[31],33 µM
same,GI50,[32],19.6 µM
same,TGI,[32],43.5 µM
same,GI50,[33],13.7 µM
same,TGI,[33],26.6 µM
same,GI50,[34],15.6 µM
same,TGI,[34],43.9 µM
same,GI50,[35],14.9 µM
same,TGI,[35],28.1 µM
same,GI50,[36],23.3 µM
same,TGI,[36],> 100 µM
same,GI50,[37],14.3 µM
same,TGI,[37],27.3 µM
same,GI50,[38],22.5 µM
same,TGI,[38],57 µM
same,GI50,[39],15.9 µM
same,TGI,[39],32.9 µM
same,GI50,[40],13.4 µM
same,TGI,[40],27.5 µM
same,GI50,[41],16.6 µM
same,TGI,[41],30.2 µM
same,GI50,[42],20.2 µM
same,TGI,[42],77.4 µM
same,GI50,[43],15.5 µM
same,TGI,[43],28.9 µM
same,GI50,[44],16.7 µM
same,TGI,[44],30.9 µM
same,GI50,[45],14.1 µM
same,TGI,[45],43.8 µM
same,GI50,[46],11.5 µM
same,TGI,[46],60.8 µM
same,GI50,[47],16.4 µM
same,TGI,[47],30.6 µM
same,GI50,[48],16.7 µM
same,TGI,[48],56.4 µM
same,GI50,[49],12.8 µM
same,TGI,[49],40.2 µM
same,GI50,[1],11.9 µM
same,TGI,[1],24.6 µM
same,GI50,[50],18.1 µM
same,TGI,[50],34.4 µM
same,GI50,[51],16.3 µM
same,TGI,[51],29.8 µM
same,GI50,[52],17.7 µM
same,TGI,[52],85.9 µM
same,GI50,[53],20.7 µM
same,TGI,[53],74.9 µM
same,GI50,[54],13.1 µM
same,TGI,[54],49.6 µM
same,GI50,[55],21.5 µM
same,TGI,[55],50 µM
